According to patent US7282340B2, “Methods for identifying an analog that promotes nerve regeneration” (Oregon Health Sciences University, priority 1997, dated 2007):
Values joined by “and” are separate entries in the source; they are usually repeats but may differ in a detail not shown here. Equal values may be shown once. Marks after values point to notes of the source that are not given here.

Columns and labels:
[1] = system: rat sciatic nerve; details: cited from earlier work
[2] = Single-dose pharmacokinetics in the rat; format: in vivo, Sprague-Dawley rat
Method: Pharmacokinetics of V-10,367. To determine the appropriate daily dose of V-10,367 for administration to rats, single-dose pharmacokinetics of V-10,367 were evaluated in the rat following intravenous and subcutaneous dosing. […] Since these concentrations were sufficiently above the 10 nM concentration needed to cause neurite extension in vitro, a subcutaneous dose of 200 mg/kg twice daily was selected for subsequent experiments.

[3] = system: SH-SY5Y human neuroblastoma cells; assay: Neurite outgrowth (neurite length) in NGF-treated SH-SY5Y cells; format: cell-based; details: for Mean neurite length: mean ± SEM
Method: Cell cultures. SH-SY5Y human neuroblastoma cells were maintained in DMEM medium (GIBCO) supplemented with 10% fetal calf serum (SIGMA), 50 IU>mL penicillin, and […] streptomycin (GIBCO) at 37° C. in 7% CO^2. Cells were plated in six-well plates at 1×10^6 cells/well and treated with […] aphidicolin (SIGMA). At five days, cells were washed, treated with nerve growth factor (NGF) (Boehringer Mannheim, Indianapolis, Ind.) at 10 ng/mL (to induce process outgrowth) in the presence or absence of V-10,367 (1, 10, or 100 nM) (Armistead et al., Acta Cryst., D51:522-528, 1995; FIG. 1). Media was changed at 96 hours and replaced with fresh media with or without the compounds (NGF and V-10,367) for an additional 72 hours (total time, 168 hours). All experiments were run in duplicate wells and repeated at least twice for reproducibility.
Light morphometry of neurite lengths. […] Neurite lengths were measured on photographic prints using a Houston Instrument HI-PAD digitizing tablet connected to an IBM XT computer with appropriate software (Bioquant IV, R&M Biometrics, Nashville, Tenn.); only those processes greater than two times the cell body length were measured. Data from identically treated wells were not different and were therefore combined. […] Histograms were compared using a Mann-Whitney U test, which makes no assumptions about the shape of the distribution.

[4] = system: rat sciatic nerve; assay: Functional recovery after sciatic nerve crush; format: in vivo, Sprague-Dawley rats
Method: (§1) Animals and surgical procedure. Ten six-week-old Sprague-Dawley rats were anesthetized with 2% halothane, the right sciatic nerve exposed, and the nerve crushed twice (for a total of 30 sec using a No. 7 Dumont jeweler's forceps) at the level of the hip. The crush site was marked by tying a sterile 9-0 suture through the perineurial sheath.
(§2) Preparation and administration of V-10,367. V-10,367-HCl (molecular weight, 639.18) was dissolved in vehicle comprising 40% propylene glycol:10% ethanol:50% water. Fresh solutions were prepared at the time of each injection. Three rats received subcutaneous injections (200 mg/kg) every 12 hours (beginning immediately after the nerve crush; totaling 400 mg/kg/day) in the back of the neck using a 25 g needle. Control animals (n=3) received injections every 12 hours of vehicle only. An additional control group (n=3) received daily injections of saline. Animals were weighed daily and the weights plotted over the 18-day period of the study.
Two separate additional studies were performed. In the first study, three axotomized rats received a single daily subcutaneous injection (200 mg/kg) as above. In the second study, V-10,367 was delivered as to axotomized rats as a continuous infusion. Osmotic pumps (Alza, Palo Alto, Calif.) model 2ML2 filled with V-10,367-HCl (200 mg/ml) or vehicle (two per group) were implanted under the skin on the left side of the animal.
Behavioral assessment. Functional recovery was assessed in FK506-treated animals used for morphological study only. Animals were examined blindly by two investigators daily until the day of perfusion (18 days). […] To obtain records during walking, the hind feet were marked with tempera paint and the animals allowed to freely walk across a sheet of paper between 14-18 days. Toe spread during walking was defined as the distance between the first and fifth digits, measured to the nearest 0.5 mm; three foot prints were analyzed from each animal. This analysis represents a reliable and reproducible index of functional recovery which, unlike the sciatic nerve function index, is not influenced by how fast the animal walks (Walker et al., Restor. Neurol. Neurosci. 6:189-193, 1994).

[5] = system: soleus nerve; assay: Electron microscopic morphometry of axonal areas in soleus nerve after sciatic nerve crush; format: in vivo, Sprague-Dawley rats
Method: as §1
as §2, with “Animals were weighed daily and the weights plotted over the 18-day period of the study.” left out
Electron microscopic analysis of axons. […] Axonal areas of both myelinated and unmyelinated fibers were determined by tracing the axolemma using a Houston Instrument HI-PAD digitizing tablet connected to an IBM XT computer with appropriate software (Bioquant IV, R&M biometrics, Nashville, Tenn.). […] For each group (i.e., 400 and 200 mg/kg/day V-10,367-treated and vehicle-treated), mean values and standard areas were calculated for the whole population of axons. […]

[6] = target: FKBP-12 (Homo sapiens, UniProt P62942); assay: FKBP-12 inhibition; format: biochemical
FKBP-12, sequence (P62942 whole entry, species assumed): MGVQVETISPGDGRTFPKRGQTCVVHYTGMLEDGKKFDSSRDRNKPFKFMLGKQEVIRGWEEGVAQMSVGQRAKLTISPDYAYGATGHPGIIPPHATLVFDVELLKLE
Text: Assays for inhibition of FKBP-12 rotamase activity are described in Harding et al. (Nature 341:758-760, 1989), Siekierka et al., Nature 341:755-757, 1989, and U.S. Pat. No. 5,654,332, for example. Chymotrypsin is able to cleave p-nitroanilide from the trans form of the artificial substrate N-succinyl-Ala-Ala-Pro-Phe-p-nitroanilide, but not from the cis form. The assays of Harding et al. and Siekierka et al. employ a reaction mixture that includes the cis form of N-succinyl-Ala-Ala-Pro-Phe-p-nitroanilide, FKBP-12, a test compound, and chymotrypsin, and spectrophotometrically measure the release of p-nitroanilide as a result of isomerization of the substrate.

[7] = rat, in vivo, sc, 400 mg/kg/day
Method: as §2

[8] = single intravenous dose 17.7 mg/kg
[9] = subcutaneous injection 174 mg/kg
[10] = continuous infusion 18 days via osmotic minipump

## cyclosporin A
[1]; rat, in vivo
  Nerve regeneration in the rat sciatic nerve following a crush injury: does not increase nerve regeneration

## CC[C@@H]1/C=C(\C)[C@@H](O)[C@H](C)C[C@H](OC)[C@H]2O[C@@](O)(C(=O)C(=O)N3CCCC[C@H]3C(=O)O[C@H](/C(C)=C/[C@@H]3CC[C@@H](O)[C@H](OC)C3)[C@H](C)[C@@H](O)CC1=O)[C@H](C)C[C@@H]2OC [L-685,818, 18-OH, 21-ethyl-FK506]
[1]; topical administration to the nerve crush site
  Functional recovery: accelerate functional recovery

## COc1cc(C(=O)C(=O)N2CCCC[C@H]2C(=O)OC(CCCc2ccccc2)CCCc2cccnc2)cc(OC)c1OC.Cl (some centres unmarked) [V-10,367]
[2]; [8]
  Average blood clearance: 84 mL/min/kg
  Elimination half-life: about 1.3 hours
  Volume of distribution at steady state: 2.76 L/kg
[2]; [9]
  Average Cmax: 171 ng/mL
  Cmax: 285 nM
[2]; subcutaneous injection 174 mg/kg, 174 mg/kg
  Trough concentrations at 8 hours post-dose: 27-252 ng/mL and 45-420 nM
[2]; subcutaneous vs intravenous
  Apparent half-life following subcutaneous administration: prolonged
[3]; 1 nM V-10,367 + NGF 10 ng/mL, 96 h
  Mean neurite length: 110 ± 2.2 μm
[3]; 1 nM V-10,367 + NGF 10 ng/mL, 168 h
  Mean neurite length: 136 ± 5.8*^,Δ μm
[3]; 10 nM V-10,367 + NGF 10 ng/mL, 96 h
  Mean neurite length: 138 ± 9.4 μm
[3]; 10 nM V-10,367 + NGF 10 ng/mL, 168 h
  Mean neurite length: 148 ± 8.6*^,††,Δ μm
[3]; 100 nM V-10,367 + NGF 10 ng/mL, 96 h
  Mean neurite length: 121 ± 6.0 μm
[3]; 100 nM V-10,367 + NGF 10 ng/mL, 168 h
  Mean neurite length: 118 ± 4.2*^,† μm
[3]; 1-100 nM with NGF 10 ng/mL
  Number of processes per cell or branching of cell processes: No change
[3]; tested at 1, 10, 100 nM with NGF 10 ng/mL
  Concentration of maximal effect on neurite length: 10 nM
[4]; axotomized side, n=3, vehicle 11.0±0.58, uninjured side 19.5±0.39
  Toe spread: distance between the first and fifth digits: 13.0±0.41 mm
[4]; [10]
  Functional recovery compared to vehicle-treated controls: earlier functional recovery
[4]; oral gavage, rat sciatic nerve crush
  Efficacy upon oral (gavage) administration: effective
[4]; s.c. V-10,367, n=3, mean ± SEM, vehicle 15.3±0.33
  Days until onset of ability to right the foot and move the toes (onset): 13.7 ± 0.33 days
[4]; s.c. V-10,367, n=3, mean ± SEM, vehicle 16.3±0.33
  Days until ability to walk on hind feet and toes (walking): 14 ± 0 days
[5]; 18 days after axotomy, subcutaneous injections
  Increase of mean axonal areas compared to vehicle: 50%
[5]; [10]
  Increase of mean axonal calibers compared to vehicle: 40%
[6]
  FKBP-12 inhibition: potent FKBP-12 inhibitor
[7]
  Tolerability: well tolerated
